Measured values from US11840495B2, “Compositions and methods related to di-substituted bicyclo[2.2.1] heptanamine-containing compounds” (The Broad Institute, Inc., priority 2020, dated 2023).
Structures can show the parent of a compound that is named as a salt. Where two headings read alike, the source gives them in different places.

How the values were obtained:
MUC1-fs = assay: Immunofluorescence imaging of MUC1-fs in P cells (Example 2); type: cell-based; details: for EC50: 48 hr incubation, MUC1-fs; for ECMax (%): DMSO = 0, JQ1 (250 nM) = −100% activity
In short: (§1)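 P cells were treated for 48 h with 5-dose (35–0.0035 μM) or 10-dose (16–0.0008 μM) series, in duplicate. Fixed cells were immunostained for MUC1-fs, MUC1-wt, GM130 and Hoechst nuclei. Per-cell cytoplasmic intensity was normalized with DMSO as 0% and JQ1 (250 nM) as −100%; cell number was normalized to DMSO.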

MUC1-wt = assay: Immunofluorescence imaging of MUC1-wt in P cells (Example 2); type: cell-based; details: for EC50: 48 hr incubation, MUC1-wt; for WT ECMax (%): DMSO = 0, JQ1 (250 nM) = −100% activity
In short: as §1

FS MUC1 = assay: Automated fixation/staining imaging assay, FS MUC1 spot cytoplasm (Example 3); type: cell-based; details: 48 hour treatment time; for FS MUC1 Spot Cytoplasm Avg Emax: in % (unit assumed)
Excerpt: (§2) Prepared Renal Life Media by adding the supplements provided in the kit, substituting the FBS provided with Tet system approved FBS, and filtering the media (not including provided kit antibiotics). Thawed P6 vial(s) into T175 flasks 2 weeks prior to screening. Cells have to be passaged at least once after thaw before they can be used for screening. Hyperflasks can be used depending on the cell number needed. One confluent T175 flask should give at least 25 million cells. Cells should not be split beyond 1:2-1:4 and should only be trypsinized 1×/week. Cells must be spun down after each typsinization. Flasks must be confluent at time of plating. Flasks were incubated at 37° C., 5% CO2, 98% humidity. Cells can only be cultured for up to 10 passages before a new vial will need to be thawed.
(§3) • Day 1: Cells are plated. • Day 2: Compounds are transferred into assay plates with Echo (24 hours post-seeding) • Day 3: Begin preparing reagents for fixation and staining. • Day 4: Plates are fixed and stained (48 hour treatment time) on automated system and subsequently imaged on Opera Phenix. • Day 5: Data analysis and reporting is performed. Plate Preparation:
(§4) Calculated cell number needed and media volume needed for the run (MAX 20 plates/run). Cells were seeded into Synthemax-coated 384-well Cell Carrier plates at a density of 12,000 cells/well in 40 ul of Renal Life Media/well. Calculated for an extra 2-3 plate volumes to account for volume needed to fill the Combi cassette lines and left dead volume of cell suspension. (20 ul added with Combi after compound addition for total 60 ul assay volume, due to volume constraints of Echo transfer process). Trypsinized cells with 3 ml/T175 flask of TrypLE™ Express Enzyme 1X. Then spun down cells and resuspend in 10 ml media. Counted the cells using Nexcelom Cellometer K2. Prepared a mixture of 20 ul cell suspension/20 ul Cellometer AOPI Stain (#CS2-0106) and then add 20 ul of the 2 fold diluted mixture onto a Cellometer slide. Counted the cells by using the Dual Stain option and following the prompts. Recorded the live cell density, viability, and current passage number and date in notebook. Used the live cell density in calculating how to prepare the cell seeding suspension. Mixed the cell suspension thoroughly but gently. Once Combi cassette cleaned and cell suspension was made, dispensed 40 ul of cell suspension per well into the Synthemax-coated Cell Carrier assay plates. Immediately after seeding, stored the assay plates in the Liconic Incubator on the enclosed system in the 3100 automation lab, spaced plates out every other slot in stackers to maximize air flow.
(§5) Generated Arxspan Run ID to record compound transfer in CBIP. Spun down compound plates and assay plates 2000 RPM 10 sec. Load assay plates into Echo system incubator. Coordinated plate locations and record RUN ID with automation team member. Ran protocol for 100 nl transfer according to designated plate layout/template. When run was completed, added 20 ul of media/well for all assay plates with Combi in hood in Tissue culture room. Returned plates to the incubator in the enclosed system for 48 hour treatment time.
(§6) Heated up solution (100° C. on stir plate) and dissolved Roche Blocking reagent by stirring. The resulting solution was cloudy. Stored at 4° C. and used within one week or froze aliquots at −20° C. Combi 4: 1° Antibody Cocktail: Prepared the day of experiment. Swirled to mix. […] Prepared solution in Corning 250 ml conical flask and covered with tinfoil to protect from light.
(§7) Combi 5: 2° Antibody Cocktail: Prepared the day of experiment. Swirlrf to mix. […] Prepared solution in Corning 250 ml conical flask and covered with tinfoil to protect from light.
(§8) Removed media using BioTek plate washer. (PEKASP62) Moved plates to Combi. Combi 1. Dispensed 40 μl of 4% PFA (Combi on MEDIUM Speed). Incubated plates 20 minutes. Washed two times on BioTek plate washer. (PEK26X2)
(§9) Moved plates to Combi. Combi 2. […]

NUCB1 = assay: Automated fixation/staining imaging assay, NUCB1 intensity (Example 3); type: cell-based; details: 48 hour treatment time; for NUCB1 Intensity Avg Emax: in % (unit assumed)
Excerpt: as §2, §3, §4, §5, §6, §7, §8, §9

P cells = assay: in vitro cellular potency of TA compounds determined in P cells; type: cell-based
[1] = Test agent stability on storage; type: physicochemical; details: storage 4° C.; refrigerated and room temperature
[2] = 48 hr, DMSO = 0, JQ1 = −100% activity, in %

Q: For `CC1(C)[C@H]2CC[C@H](C2)[C@@]1(C)N` (racemic) [Compound 242, rac-2,3,3-trimethylbicyclo[2.2.1]heptan-2-amine hydrochloride], which EC50 (MUC1-fs; read-out: EC50) is on record?
A: The EC50 was 2430 nM.

Q: What about the Emax (MUC1-fs; [2]) of the same molecule?
A: The Emax was −67.4.

Q: What about the EC50 (MUC1-wt; read-out: WT EC50) of the same molecule?
A: The EC50 was greater than 16000 nM.

Q: What about the “WT EMax” value (MUC1-wt; [2]) of the same molecule?
A: Its value is 27.7.

Q: What about the IC50 (FS MUC1) of the same molecule?
A: The IC50 was 2430 nM.

Q: And the “FS MUC1 Spot Cytoplasm Avg Emax” value (FS MUC1)?
A: Its value is −67.4.

Q: And the EC50 (NUCB1)?
A: The EC50 was 4930 nM.

Q: What about the “NUCB1 Intensity Avg Emax” value (NUCB1) of the same molecule?
A: The value was −85.46.

Q: What does the source list for `N[C@]1(c2ccccc2)[C@@H]2CC[C@@H](C2)C12CCCC2` (racemic) [Compound 252]?
A: IC50 (FS MUC1): 7830 nM; FS MUC1 Spot Cytoplasm Avg Emax (FS MUC1): −86.32; EC50 (NUCB1): 11200 nM; NUCB1 Intensity Avg Emax (NUCB1): −72.37

Q: Which IC50 (FS MUC1) does the source give for `CC(C)[C@H]1[C@H]2CC[C@H](C2)[C@@]1(C)N` (racemic) [Compound 254] here?
A: Its IC50 is 8520 nM.

Q: What about the “FS MUC1 Spot Cytoplasm Avg Emax” value (FS MUC1) of the same molecule?
A: The value was −69.07.

Q: For `CC(C)[C@H]1[C@H]2CC[C@H](C2)[C@]1(C)N` (racemic) [Compound 255], which IC50 (FS MUC1) is on record?
A: The IC50 was 8250 nM.

Q: What about the “FS MUC1 Spot Cytoplasm Avg Emax” value (FS MUC1) of the same molecule?
A: Its value is −67.5.

Q: With `CC(C)[C@@H]1[C@H]2CC[C@H](C2)[C@@]1(C)N` (racemic) [Compound 256] as the molecule, how does the IC50 (FS MUC1) read?
A: Its IC50 is 6450 nM.

Q: What about the “FS MUC1 Spot Cytoplasm Avg Emax” value (FS MUC1) of the same molecule?
A: Its value is −65.11.

Q: Which EC50 (P cells) does the source give for `CC[C@]1(C)[C@H]2CC[C@H](C2)[C@H]1N` (single isomer, unassigned) [Compound 202-P1] here?
A: The EC50 was 26 nM.

Q: And the EC50 (MUC1-fs; read-out: EC50(Spot))?
A: Its EC50 is 40 nM.

Q: And the “ECMax (%)” value (MUC1-fs; 48 hr)?
A: The value was −77.14%.

Q: And the EC50 (MUC1-wt; read-out: WT EC50 (Cytoplasm))?
A: Its EC50 is 4040 nM.

Q: And the “WT ECMax (%)” value (MUC1-wt; 48 hr)?
A: The value was roughly 150%.

Q: What about the Stability/expiration date [1] of the same molecule?
A: The Stability/expiration date was “Stable when refrigerated and at room temperature for few hours”.

Q: For `CC[C@@]1(C)[C@@H]2CC[C@@H](C2)[C@@H]1N` (single isomer, unassigned) [Compound 202-P2], which EC50 (P cells) is on record?
A: The EC50 was 14 nM.

Q: And the EC50 (MUC1-fs; read-out: EC50(Spot))?
A: Its EC50 is 20 nM.

Q: And the “ECMax (%)” value (MUC1-fs; 48 hr)?
A: The value was −76%.

Q: What about the EC50 (MUC1-wt; read-out: WT EC50 (Cytoplasm)) of the same molecule?
A: Its EC50 is greater than 1800 nM.

Q: What about the “WT ECMax (%)” value (MUC1-wt; 48 hr) of the same molecule?
A: Its value is roughly 175%.

Q: And the Stability/expiration date [1]?
A: The Stability/expiration date was “Stable when refrigerated and at room temperature for few hours”.

Q: For `CC[C@@]1(C)[C@H]2CC[C@H](C2)[C@H]1N` (single isomer, unassigned) [Compound 203-P1], which EC50 (P cells) is on record?
A: Its EC50 is 40 nM.

Q: What about the EC50 (MUC1-fs; read-out: EC50(Spot)) of the same molecule?
A: The EC50 was 50 nM.

Q: And the “ECMax (%)” value (MUC1-fs; 48 hr)?
A: Its value is −76.02%.

Q: What about the EC50 (MUC1-wt; read-out: WT EC50 (Cytoplasm)) of the same molecule?
A: Its EC50 is 2700 nM.

Q: And the “WT ECMax (%)” value (MUC1-wt; 48 hr)?
A: The value was 91.48%.

Q: And the Stability/expiration date [1]?
A: The Stability/expiration date was “Stable when refrigerated and at room temperature for few hours”.

Q: Which EC50 (P cells) does the source give for `CC[C@]1(C)[C@@H]2CC[C@@H](C2)[C@@H]1N` (single isomer, unassigned) [Compound 203-P2] here?
A: Its EC50 is 46 nM.

Q: And the EC50 (MUC1-fs; read-out: EC50(Spot))?
A: Its EC50 is 40 nM.

Q: What about the “ECMax (%)” value (MUC1-fs; 48 hr) of the same molecule?
A: Its value is −75%.

Q: And the EC50 (MUC1-wt; read-out: WT EC50 (Cytoplasm))?
A: Its EC50 is 2600 nM.

Q: And the “WT ECMax (%)” value (MUC1-wt; 48 hr)?
A: Its value is 95%.

Q: What about the Stability/expiration date [1] of the same molecule?
A: The Stability/expiration date was “Stable when refrigerated and at room temperature for few hours”.

Q: For `CC(C)[C@H]1[C@H]2CC[C@H](C2)[C@]1(C)N` (single isomer, unassigned) [Compound 251], which IC50 (FS MUC1) is on record?
A: Its IC50 is 240 nM.

Q: And the “FS MUC1 Spot Cytoplasm Avg Emax” value (FS MUC1)?
A: Its value is −72.07.

Q: What does the source list for `C[C@]1(N)C[C@H]2CC[C@@H]1C2` (single isomer, unassigned) [Compound 253]?
A: IC50 (FS MUC1): 8580 nM; FS MUC1 Spot Cytoplasm Avg Emax (FS MUC1): −52.28; NUCB1 Intensity Avg Emax (NUCB1): −21.51

Q: What does the source list for `CC(C)[C@@H]1[C@H]2CC[C@H](C2)[C@@]1(C)N` (single isomer, unassigned) [Compound 257]?
A: IC50 (FS MUC1): 96.9 nM; FS MUC1 Spot Cytoplasm Avg Emax (FS MUC1): −74.94

Q: Which IC50 (FS MUC1) does the source give for `CC(C)[C@@H]1[C@@H]2CC[C@@H](C2)[C@]1(C)N` (single isomer, unassigned) [Compound 258] here?
A: The IC50 was 5870 nM.

Q: And the “FS MUC1 Spot Cytoplasm Avg Emax” value (FS MUC1)?
A: Its value is −67.73.

Q: What about the EC50 (NUCB1) of the same molecule?
A: Its EC50 is 9770 nM.

Q: What about the “NUCB1 Intensity Avg Emax” value (NUCB1) of the same molecule?
A: Its value is −89.37.

Q: Which IC50 (FS MUC1) does the source give for `CC(C)[C@H]1[C@@H]2CC[C@@H](C2)[C@]1(C)N` (single isomer, unassigned) [Compound 259] here?
A: The IC50 was 2940 nM.

Q: And the “FS MUC1 Spot Cytoplasm Avg Emax” value (FS MUC1)?
A: Its value is −59.03.

Q: What about the EC50 (NUCB1) of the same molecule?
A: The EC50 was 14600 nM.

Q: What about the “NUCB1 Intensity Avg Emax” value (NUCB1) of the same molecule?
A: Its value is −53.
